From patent US6642209B1, “Use of adenosine compounds to alleviate or normalize pathologically hyperexcited sensory nerve function in a human patient” (priority 1990, dated 2003)
Read-outs that look alike come from different tables or passages of the source.

Legend:
[1] = test system: surgical patients; test: ATP anesthesia replacing enflurane or N2O in patients undergoing oral surgery
[2] = test system: surgical patients; test: ATP infusion to attenuate surgical stress response in patients
[3] = test system: rabbits; test: Hypothermia induced under adenosine or ATP infusion; format: in vivo, rabbit
Method: The hypothermic and rewarming effects of an adenosine compound are tested in experimental animals prepared similarly as in the rabbit model described herein to test for anesthetic effects, except that the body temperature is allowed to fall. In animal studies (rabbit) where the room has a temperature of approximately 22° C., the body temperature will fall from a norm of about 39° C. to about 32° C. in about three hours. If the animal is cooled further with ice bags, a temperature of approximately 22° C. can be achieved in three hours without cardiovascular decompensation. Rewarming is done with the aid of a thermal blanket and heat lamp. The effective dosages of adenosine compound ranged from about 100 μg/kg/min to about 5000 μg/kg/min.
Referring to FIG. 7, the body temperature versus time plots are shown for eight different experiments. In Run 1, adenosine 500 μg/kg/min was administered intravenously to rabbits for six hours. The administration was then stopped and the body temperatures were allowed to recover.
In Run 2, ATP 500 μg/kg/min was administered intravenously for six hours. At that time, the body temperature was 31.5° C. The animal's body temperature was allowed to recover by applying external heating for four hours when (at the arrow) the external heating was removed and the temperature was allowed to fall. The body temperature again fell.
In Run 3, ATP was administered intravenously. The body temperature stabilized after ten hours at 32.5° C.
In Runs 4, 5, and 6, adenosine was administered to rabbits until the body temperature reached a constant value. In Run 4, after five hours, the body temperature stabilized at 33° C. In Run 6, after six hours, the temperature stabilized at 31.5° C.
In Run 7, five unmedicated New Zealand rabbits were anesthetized with halothane in O2 using a face mask. The ear vein was cannulated with a 22 gauge plastic catheter for drug infusion. 500 μg/kg/min to 5500 μ/kg/min adenosine was administered IV. Body temperature was monitored through a rectal thermometer. The body temperature started at approximately 38.5° C. After the application of ice bags, the temperature dropped approximately 5.5° C./hr until a minimum body temperature of approximately 22° C. was achieved.
The ice bags were removed and external heating applied. The body temperature of all rabbits returned to normal, and the rabbits were apparently normal.
In a comparison, in Run 8, six rabbits were anesthetized with isofluane and external cooling applied.

[4] = test system: rabbits; test: Replacement of enflurane anesthesia by ATP infusion, electrical tail stimulation and tail clamp; conditions: for DBP / HR / PaCO2 / PaO2 / RR (Respiratory Rate) / SBP: N2O 60%, ENF 2.0-[…], ATP 362 ± 164 μg/kg/min, Mean ± SD, n = 6
[5] = test system: experimental animals; test: Lethal to effective dose margin; format: in vivo; conditions: for lethal dose relative to the dose required for analgesia: in vivo
Method: In contrast to other conventional anesthetics, the adenosine compounds are useful over a wide dose range. For example, adenosine is active over a as range of between 1 to 5000 μg/kg/min. In contrast, conventional anesthetic agents, such as isoflurane, have narrow effective ranges. The fatal to effective anesthetic ratio of isoflurane is 3.02±0.13. Other reports indicate that isoflurane has about 1.88 times the safety range of halothane. […] Of course, the anesthesiologist will err on the side of administering too little and, thereby, runs the risk of underdosing the patient. This need for caution may result in an inadequately anesthetized (subanesthetized) patient during the surgical procedure.
One great advantage observed with adenosine compounds is the wide margin for error on effective therapeutic range. This advantage is exemplified by adenosine where the lethal dose is about 100 times the dose required for analgesia, and ATP where the lethal dose is greater than 150 times the amount required for analgesia.

[6] = test system: dogs; test: Oxygen transport and regional tissue oxygenation during graded induced hypotension; format: in vivo, dog; conditions: graded hypotension to MAP 30 mmHg
Method: Arterial and pulmonary artery (Swan-Ganz) catheters were placed via a femoral cut down. […] Another PO2 sensor probe was placed on the surface of the liver, kidney, subcutaneous, and muscle of the chest wall through a small skin incision. Referring to FIG. 6, the dogs were divided into three groups: (a) hemorrhagic (n=7), (b) isoflurane (n=8), and (c) ATP (n=8). […] The following were measured and/or calculated: […] The data were analyzed using ANOVA with the Bonferroni t-test and unpaired t-test where appropriate, accepting p<0.05 as significant.

[7] = Anesthesia score chart comparing anesthetic agents for the four components of anesthesia (Table 1); set-up: key: 0 no effect; 1 minimal; 2 mostly; 3 maximal; conditions: for Antinociception (analgesia, less pain perception) / Inhibition of Stress (autonomic responses: blood pressure, heart rate; endocrine and metabolic responses) / Muscle Relaxation / Sleep (unconsciousness, amnesia, sedation): Anesthesia Score 0 to 3; for TOTALS of Anesthesia Score: sum of the four components
[8] = test system: rabbits; conditions: rabbit, in vivo
[9] = test system: New Zealand white rabbits; test: Electrical tail stimulation screening: head lift (hypnotic) and escape movement (analgesic) thresholds; format: in vivo, rabbit; conditions: for EM (purposeful escape movement, analgesic) threshold responses / HL (head lift, hypnotic) threshold responses: increasing doses, 60% N2O baseline sedation, FIG. 1
[10] = test system: New Zealand white rabbits
[11] = test system: rabbits; test: Analgesic activity of adenosine compared with morphine sulfate, tail/ear clamp and electrical stimulation
[12] = GROUP A spontaneously breathing, ATP infusion time 60 min, n = 18, mean
[13] = GROUP A spontaneously breathing, ATP infusion time 120 min, n = 16, mean
[14] = GROUP A spontaneously breathing, ATP infusion time 180 min, n = 3, mean
[15] = GROUP A spontaneously breathing, ATP infusion time 240 min, n = 1
[16] = GROUP B mechanically breathing, ATP infusion time 60 min, n = 14, mean
[17] = GROUP B mechanically breathing, ATP infusion time 120 min, n = 10, mean
[18] = GROUP B mechanically breathing, ATP infusion time 180 min, n = 5, mean
[19] = GROUP B mechanically breathing, ATP infusion time 240 min, n = 4, mean
[20] = Run 7, 500 to 5500 μg/kg/min IV, ice bags
[21] = under 60% N2O, n = 6, Mean ± SD

Nc1ncnc2c1ncn2[C@@H]1O[C@H](COP(=O)(O)OP(=O)(O)OP(=O)(O)O)[C@@H](O)[C@H]1O [ATP, adenosine triphosphate]
ATP infusion dose titrated until ENF or N2O was completely replaced ([1]; 14 patients, Mean ± SD): 108 ± 21 µg/kg/min | Urine output ([1]; 14 patients, Mean ± SD): 111 ± 16 mL/h | ventilatory or blood gas deterioration ([1]; during ATP infusion in spontaneously breathing patients): No ventilatory or blood gas deterioration was seen | BE [2, 12]: −3.3 | Hb [2, 12]: 12.6 | PCO2 [2, 12]: 44.1 | PO2 [2, 12]: 140.9 | pH (arterial blood gas) [2, 12]: 7.33 | BE [2, 13]: −3.2 | Hb [2, 13]: 12.8 | PCO2 [2, 13]: 41.9 | PO2 [2, 13]: 137.9 | pH (arterial blood gas) [2, 13]: 7.34 | BE [2, 14]: −3.0 | Hb [2, 14]: 11.9 | PCO2 [2, 14]: 39.9 | PO2 [2, 14]: 165.5 | pH (arterial blood gas) [2, 14]: 7.36 | BE [2, 15]: −4.1 | Hb [2, 15]: 10.7 | PCO2 [2, 15]: 31.0 | PO2 [2, 15]: 115.1 | pH (arterial blood gas) [2, 15]: 7.39 | BE [2, 16]: −4.2 | Hb [2, 16]: 11.7 | PCO2 [2, 16]: 40.2 | PO2 [2, 16]: 140.3 | pH (arterial blood gas) [2, 16]: 7.34 | BE [2, 17]: −4.8 | Hb [2, 17]: 11.2 | PCO2 [2, 17]: 40.1 | PO2 [2, 17]: 142.6 | pH (arterial blood gas) [2, 17]: 7.33 | BE [2, 18]: −5.2 | Hb [2, 18]: 11.8 | PCO2 [2, 18]: 41.6 | PO2 [2, 18]: 130.4 | pH (arterial blood gas) [2, 18]: 7.32 | BE [2, 19]: −5.4 | Hb [2, 19]: 11.7 | PCO2 [2, 19]: 45.4 | PO2 [2, 19]: 130.1 | pH (arterial blood gas) [2, 19]: 7.288 | Intra-operative urine output ([2]; Group A, spontaneous ventilation, n=20): 58.7 (±43.3) ml/hr | Intra-operative urine output ([2]; Group B, mechanically ventilated, n=14): 71.8 (±44.6) ml/hr | emergence from anesthesia ([2]; after discontinuation of N2O and ATP): all patients emerged from anesthesia smoothly | cardiovascular and neurobehavioral responses to surgery ([2]; continuous infusion in combination with N2O): effectively inhibited | ENF requirement ([2]; continuous infusion of ATP): markedly reduced | hemodynamic and respiratory functions ([2]; during ATP infusion): well maintained | body temperature ([3]; Run 2, 500 μg/kg/min intravenously for six hours): 31.5 °C | body temperature at which it stabilized ([3]; Run 3, intravenously, after ten hours): 32.5 °C | purposeful escape movements on electrical tail stimulation ([4]; FIG. 4): purposeful escape movements decreased | analgesic effect after the infusion had stopped ([4]; IV ATP): selective analgesic effect persisted | DBP [4]: 83 ± 16 mmHg | HR [4]: 278 ± 26 bpm | PaCO2 [4]: 22 ± 3 mmHg | PaO2 [4]: 145 ± 24 mmHg | RR (Respiratory Rate) [4]: 81 ± 14 bpm | SBP [4]: 112 ± 20 mmHg | deaths on overdose ([5]; enormous overdoses): no experimental animals died | lethal dose relative to the dose required for analgesia [5]: greater than 150 times | O2 supply/demand ratio [6]: positive O2 supply/demand ratio in all stages of hypotension

FC(F)OC(F)(F)C(F)Cl (stereo not shown) [ENF, enflurane, reference compound]
Antinociception (analgesia, less pain perception) [7]: 1 | Inhibition of Stress (autonomic responses: blood pressure, heart rate; endocrine and metabolic responses) [7]: 1 | Muscle Relaxation [7]: 1 | Sleep (unconsciousness, amnesia, sedation) [7]: 3 | TOTALS of Anesthesia Score [7]: 6 | DBP [4]: 49 ± 18 mmHg | HR [4]: 255 ± 33 bpm | PaCO2 [4]: 25 ± 1 mmHg | PaO2 [4]: 148 ± 16 mmHg | RR (Respiratory Rate) [4]: 72 ± 19 bpm | SBP [4]: 69 ± 22 mmHg | ENF level that completely inhibits responses to tail clamp ([4]; under 60% N2O): 2-2.5%

[N-]=[N+]=O [Nitrous Oxide, nitrous oxide]
Antinociception (analgesia, less pain perception) [7]: 1 | Inhibition of Stress (autonomic responses: blood pressure, heart rate; endocrine and metabolic responses) [7]: 1 | Muscle Relaxation [7]: 0 | Sleep (unconsciousness, amnesia, sedation) [7]: 1 | TOTALS of Anesthesia Score [7]: 3

Nc1ncnc2c1ncn2[C@@H]1O[C@H](CO)[C@@H](O)[C@H]1O [adenosine]
BP (Systolic BP) [8]: 101 ± 19 mmHg | HR [8]: 230 ± 24 bpm | PaCO2 [8]: 25 ± 4 mmHg | PaO2 [8]: 126 ± 8 mmHg | RR (Respiratory Rate) [8]: 85 ± 19 bpm | drug accumulation or respiratory depression ([9]; continuous infusion for prolonged times): did not cause drug accumulation or respiratory depression | EM (purposeful escape movement, analgesic) threshold responses [9]: elevated EM responses | HL (head lift, hypnotic) threshold responses [9]: remained low | hemodynamic responses to noxious stimulation ([9]; rabbit, in vivo): effectively blocked | respiratory and blood gas effects ([9]; spontaneously breathing rabbits): maintained normal respiratory and blood gas parameters | reduction of the response to the noxious stimulation ([10]; intrathecal administration): as effective as intrathecal fentanyl | Δ HR ([10]; rabbit, in vivo): −22 ± 5 bpm | Δ MAP ([10]; rabbit, in vivo): −4 ± 5 mmHg | Δ PaCO2 ([10]; rabbit, in vivo): −6.8 ± 2.1 mmHg | Δ PaO2 ([10]; rabbit, in vivo): +10 ± 14 | Δ RR ([10]; rabbit, in vivo): −4 ± 10 bpm | dose that completely suppressed the responses to both kinds of stimulation (ED90) ([11]; under 60% N2O, infusion, n = 6): 188 ± 20 µg/kg/min | body temperature at which it stabilized ([3]; Run 4, after five hours): 33 °C | body temperature at which it stabilized ([3]; Run 6, after six hours): 31.5 °C | minimum body temperature achieved [3, 20]: approximately 22 °C | rate of body temperature drop [3, 20]: approximately 5.5 ° C./hr | survival during body temperature lowering ([3]; external cooling, Run 7 (five rabbits), Run 8 (six rabbits)): All five rabbits survived | shivering during body temperature lowering ([3]; external cooling, Run 7, Run 8): no shivering or other apparent discomfort was observed | lethal dose relative to the dose required for analgesia [5]: about 100 times

Cn1c(=O)c2[nH]cnc2n(C)c1=O [aminophylline, reference compound]
reversal of adenosine induced analgesia ([11]; aminophylline 5-10 mg/kg): consistently reversed | reversal of sustained analgesia after discontinuation of ATP ([4]; IV aminophylline): partially reversed

FC(F)(F)C(Cl)Br (stereo not shown) [halothane]
Antinociception (analgesia, less pain perception) [7]: 1 | Inhibition of Stress (autonomic responses: blood pressure, heart rate; endocrine and metabolic responses) [7]: 1 | Muscle Relaxation [7]: 1 | Sleep (unconsciousness, amnesia, sedation) [7]: 3 | TOTALS of Anesthesia Score [7]: 6 | EM (purposeful escape movement, analgesic) threshold responses [9]: consistently elevated | HL (head lift, hypnotic) threshold responses [9]: consistently elevated

CN1CC[C@]23c4c5ccc(O)c4O[C@H]2[C@@H](O)C=C[C@H]3[C@H]1C5.O=S(=O)(O)O [morphine sulfate]
suppression of responses to stimulation ([11]; titrated IV to 2 mg/kg, under 60% N2O): no animal had complete suppression of all responses | BP (Systolic BP) [11, 21]: 105 ± 14 mmHg | HR [11, 21]: 242 ± 72 bpm | PaCO2 [11, 21]: 31 ± 3 mmHg | PaO2 [11, 21]: 123 ± 14 mmHg | RR (Respiratory Rate) [11, 21]: 47 ± 16 bpm
